Results reported in patent US7759321B2, “Compounds for the treatment of pain” (Cambridge Biotechnology Ltd, priority 2003, dated 2010).

How the values were obtained:
[1] = Plasma concentration over time after administration; format: in vivo, rat
Procedure: It can be seen that the plasma concentration remains above 2% of the EC50 value for more than 3 hours.

[2] = tested on: chronic constriction injury of the rat sciatic nerve; experiment: Chronic constriction injury model of neuropathic pain, thermal hyperalgesia; format: in vivo; conditions: 0.624 mg/kg p.o.
Description: After approximately two weeks the rats developed thermal hyperalgesia in the operated leg as judged by the difference in paw withdrawal latencies of the right and left paws.

[3] = target: adenosine receptors (Rattus norvegicus, UniProt P30543); experiment: EC50 at adenosine receptors measured at pH 7.4; format: biochemical
Description: For the avoidance of doubt, the EC50 value of a compound is defined herein as the concentration of the compound that provokes a receptor response halfway between the baseline receptor response and the maximum receptor response (as determined, for example, using a dose-response curve).
The EC50 value should be determined under standard conditions (balanced salt solutions buffered to pH 7.4). […] The EC50 could also be determined in vivo by measuring adenosine receptor mediated responses in a normal healthy animal, or even in a tissue perfused under normal conditions (i.e. oxygenated blood, or oxygenated isotonic media, also buffered at pH 7.4) in a normal healthy animal.

[4] = tested on: normal physiological nociception; experiment: Normal physiological nociception after administration; format: in vivo
Description: Compounds of formula (I) are believed to be effective in inhibiting pain perception in mammals suffering from pain, in particular neuropathic and inflammatory pain, even when administered at doses expected to give plasma concentrations well below those known to activate adenosine receptors. […] Therefore, compounds of formula (I) can treat pain (particularly neuropathic and inflammatory pain) without causing the significant side effects associated with administration of other adenosine receptor agonists, and also without reducing normal sensory perception.

[5] = tested on: rats; conditions: cited from earlier work
[6] = tested on: static allodynia in a model of neuropathic pain; experiment: Static allodynia in a model of neuropathic pain (paw withdrawal threshold); format: in vivo
Procedure: Spongosine and gabapentin were administered (p.o.) in different proportions as indicated in the drawing. The total dose administered is shown on the horizontal axis, and the paw withdrawal threshold (PWT) on the vertical axis. The predicted anti-hyperalgesic effect (derived from the dose response curves obtained with each agent alone) if the effects of the two compounds are additive is shown (●). The observed effects are indicated by (▪).

[7] = target: rat A2A receptor (Rattus norvegicus, UniProt P30543); conditions: read-out: EC50 for stimulation of the rat A2A receptor; cited from earlier work
[8] = tested on: normal rats; experiment: Blood pressure and heart rate by implantable radiotelemetry; format: in vivo, rat; conditions: 0.624 mg/kg p.o.
Description: An implantable radiotelemetry device was placed in the abdominal cavity of 6 rats per group. The pressure catheter of the device was inserted in the abdominal aorta and two electrodes tunnelised under the skin in a lead II position (left side of abdominal cavity/right shoulder). Individual rats were placed in their own cage on a radioreceptor (DSI) for data acquisition. A: blood pressure; B: heart rate.

[9] = tested on: carrageenan (CGN) induced thermal hyperalgesia; experiment: Carrageenan induced thermal hyperalgesia (CITH); format: in vivo; conditions: 0.624 mg/kg p.o.
Procedure: Carrageenan (2%, 10 microlitres) was administered into the right hind paw. A heat source was placed close to the treated and untreated hind paws, and the difference in the paw withdrawal latencies is shown. Spongosine was administered at the same time as carrageenan.

Sequence of adenosine receptors (P30543 whole entry): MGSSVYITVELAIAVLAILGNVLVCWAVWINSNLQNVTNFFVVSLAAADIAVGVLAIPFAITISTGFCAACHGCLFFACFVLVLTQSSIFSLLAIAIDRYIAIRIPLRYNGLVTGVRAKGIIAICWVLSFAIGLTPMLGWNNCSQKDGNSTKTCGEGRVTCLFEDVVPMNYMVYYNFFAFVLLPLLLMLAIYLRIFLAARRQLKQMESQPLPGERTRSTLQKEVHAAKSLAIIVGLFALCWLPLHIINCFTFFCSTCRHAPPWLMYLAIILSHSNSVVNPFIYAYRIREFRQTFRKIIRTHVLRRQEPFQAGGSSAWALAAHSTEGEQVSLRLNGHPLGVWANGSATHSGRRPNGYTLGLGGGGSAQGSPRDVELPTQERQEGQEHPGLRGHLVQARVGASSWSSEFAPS
Sequence of rat A2A receptor (P30543 whole entry): as above

With `COc1nc(N)c2ncn([C@@H]3O[C@H](CO)[C@@H](O)[C@H]3O)c2n1` [Spongosine, 2-methoxyadenosine] as the compound, how does the “Blood pressure effect if the peak plasma concentration reaches the EC50 value” ([1]; last for hours) read?
The value was “profound reductions in blood pressure”.

And the “Time plasma concentration remains above 2% of the EC50 value” ([1]; rat, 0.6 mg/kg)?
The value was “more than 3 hours”.

And the “Effect on thermal hyperalgesia caused by chronic constriction injury (difference in paw withdrawal latencies)” value [2]?
The value was “inhibits thermal hyperalgesia”.

What about the “Efficacy compared with carbamazepine (CBZ, 100 mg/kg s.c.) in chronic constriction injury model” value [2] of the same compound?
Its value is “as, or more, effective than carbamazepine”.

What about the EC50 [3] of the same compound?
Its EC50 is 3000 nM.

What about the “Effect on normal physiological nociception” value [4] of the same compound?
The value was “no effect”.

And the “Biological activities in rats” value [5]?
Its value is “muscle relaxant, hypothermic, hypotensive, and anti-inflammatory activity”.

What about the “Effect on static allodynia (paw withdrawal threshold, PWT)” value (“Effect on static allodynia” for short) ([6]; 1.2 mg/kg p.o., in the presence and absence of naloxone (1 mg/kg s.c.)) of the same compound?
Its value is “inhibits static allodynia”.

And the “Effect on static allodynia” value ([6]; p.o., Example 6)?
The value was “inhibit static allodynia”.

What about the EC50 [7] of the same compound?
Its EC50 is 3000 nM.

And the “Effect on blood pressure” value [8]?
The value was “no significant effect”.

What about the “Effect on heart rate” value [8] of the same compound?
Its value is “no significant effect”.

And the “Efficacy compared with indomethacin (3 mg/kg p.o.) in carrageenan induced thermal hyperalgesia” value [9]?
Its value is “as effective as indomethacin”.

What about the “Effect on carrageenan induced thermal hyperalgesia (difference in paw withdrawal latencies)” value ([9]; given at the same time as carrageenan (2%, 10 microlitres, right hind paw)) of the same compound?
Its value is “inhibits carrageenan (CGN) induced thermal hyperalgesia”.

For `NCC1(CC(=O)O)CCCCC1` [gabapentin, reference compound], which “Effect on static allodynia” value ([6]; p.o., Example 6) is on record?
Its value is “inhibit static allodynia”.
